Measurements reported in ChEMBL document CHEMBL4507261, “Data for DCP probe A-192621” (2021).

Assays:
Conditions in all cases: Compound concentration 10.0 uM
[1] = target: 5-hydroxytryptamine receptor 2B (Homo sapiens) (UniProt P41595)
[2] = target: T1, Muscarinic acetylcholine receptor M5 (Homo sapiens) (UniProt P08912)
T1 sequence (whole entry): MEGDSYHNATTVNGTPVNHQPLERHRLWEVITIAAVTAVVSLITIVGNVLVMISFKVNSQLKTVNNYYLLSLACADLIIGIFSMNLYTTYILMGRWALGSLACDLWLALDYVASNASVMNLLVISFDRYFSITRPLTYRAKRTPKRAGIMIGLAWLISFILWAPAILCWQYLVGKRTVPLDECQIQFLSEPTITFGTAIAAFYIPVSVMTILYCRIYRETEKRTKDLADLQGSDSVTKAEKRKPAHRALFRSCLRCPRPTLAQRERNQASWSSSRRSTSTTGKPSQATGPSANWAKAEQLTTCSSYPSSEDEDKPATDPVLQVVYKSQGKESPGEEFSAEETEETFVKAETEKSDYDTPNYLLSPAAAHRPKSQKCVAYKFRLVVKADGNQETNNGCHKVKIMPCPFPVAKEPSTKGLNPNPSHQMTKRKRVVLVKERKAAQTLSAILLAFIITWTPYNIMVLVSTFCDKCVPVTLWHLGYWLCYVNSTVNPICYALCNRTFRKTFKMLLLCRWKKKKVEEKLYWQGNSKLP

[3] = target: T2, Alpha-1A adrenergic receptor (Homo sapiens) (UniProt P35348)
T2 sequence (whole entry): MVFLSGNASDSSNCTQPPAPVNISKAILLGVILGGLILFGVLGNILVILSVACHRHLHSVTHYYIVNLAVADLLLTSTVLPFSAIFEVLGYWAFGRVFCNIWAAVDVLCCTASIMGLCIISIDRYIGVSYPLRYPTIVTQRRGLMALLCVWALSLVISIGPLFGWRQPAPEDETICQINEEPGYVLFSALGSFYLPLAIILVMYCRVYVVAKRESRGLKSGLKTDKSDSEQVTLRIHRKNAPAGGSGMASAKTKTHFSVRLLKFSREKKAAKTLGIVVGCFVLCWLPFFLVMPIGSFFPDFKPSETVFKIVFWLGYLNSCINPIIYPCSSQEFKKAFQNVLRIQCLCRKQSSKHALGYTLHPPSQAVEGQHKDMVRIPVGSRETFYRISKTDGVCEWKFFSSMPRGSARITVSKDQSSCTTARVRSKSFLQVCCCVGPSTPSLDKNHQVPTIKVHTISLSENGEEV

[4] = target: Sigma non-opioid intracellular receptor 1 (Homo sapiens) (UniProt Q99720)
[5] = target: 5-hydroxytryptamine receptor 1B (Homo sapiens) (UniProt P28222)
[6] = target: T3, 5-hydroxytryptamine receptor 2C (Homo sapiens) (UniProt P28335)
T3 sequence (whole entry): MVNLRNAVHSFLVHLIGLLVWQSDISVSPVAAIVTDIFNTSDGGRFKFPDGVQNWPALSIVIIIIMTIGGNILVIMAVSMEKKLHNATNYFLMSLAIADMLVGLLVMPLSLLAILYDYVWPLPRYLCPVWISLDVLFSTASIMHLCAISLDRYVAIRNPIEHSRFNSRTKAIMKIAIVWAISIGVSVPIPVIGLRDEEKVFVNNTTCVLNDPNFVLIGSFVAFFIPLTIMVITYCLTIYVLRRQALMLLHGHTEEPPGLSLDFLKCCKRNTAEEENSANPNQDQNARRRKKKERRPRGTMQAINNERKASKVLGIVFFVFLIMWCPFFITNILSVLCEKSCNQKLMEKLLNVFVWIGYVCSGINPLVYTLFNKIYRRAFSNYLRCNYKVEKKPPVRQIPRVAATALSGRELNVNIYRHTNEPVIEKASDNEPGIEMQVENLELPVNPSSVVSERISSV

[7] = target: Kappa-type opioid receptor (Homo sapiens) (UniProt P41145)
[8] = target: D(4) dopamine receptor (Homo sapiens) (UniProt P21917)
[9] = target: T4, Alpha-2A adrenergic receptor (Homo sapiens) (UniProt P08913)
T4 sequence (whole entry): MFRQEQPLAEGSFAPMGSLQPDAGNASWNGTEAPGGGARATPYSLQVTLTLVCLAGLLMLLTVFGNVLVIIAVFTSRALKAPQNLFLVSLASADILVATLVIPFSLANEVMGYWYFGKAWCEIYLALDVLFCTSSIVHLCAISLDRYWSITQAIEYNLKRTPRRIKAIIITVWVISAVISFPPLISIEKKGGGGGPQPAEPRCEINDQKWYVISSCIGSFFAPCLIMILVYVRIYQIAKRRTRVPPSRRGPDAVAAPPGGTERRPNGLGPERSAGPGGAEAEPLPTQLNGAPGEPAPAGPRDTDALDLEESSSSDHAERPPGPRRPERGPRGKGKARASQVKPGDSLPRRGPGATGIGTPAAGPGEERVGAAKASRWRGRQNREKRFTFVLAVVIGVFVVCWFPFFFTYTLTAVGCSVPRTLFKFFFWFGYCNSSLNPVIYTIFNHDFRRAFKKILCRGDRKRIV

[10] = target: T5, Alpha-1B adrenergic receptor (Homo sapiens) (UniProt P35368)
T5 sequence (whole entry): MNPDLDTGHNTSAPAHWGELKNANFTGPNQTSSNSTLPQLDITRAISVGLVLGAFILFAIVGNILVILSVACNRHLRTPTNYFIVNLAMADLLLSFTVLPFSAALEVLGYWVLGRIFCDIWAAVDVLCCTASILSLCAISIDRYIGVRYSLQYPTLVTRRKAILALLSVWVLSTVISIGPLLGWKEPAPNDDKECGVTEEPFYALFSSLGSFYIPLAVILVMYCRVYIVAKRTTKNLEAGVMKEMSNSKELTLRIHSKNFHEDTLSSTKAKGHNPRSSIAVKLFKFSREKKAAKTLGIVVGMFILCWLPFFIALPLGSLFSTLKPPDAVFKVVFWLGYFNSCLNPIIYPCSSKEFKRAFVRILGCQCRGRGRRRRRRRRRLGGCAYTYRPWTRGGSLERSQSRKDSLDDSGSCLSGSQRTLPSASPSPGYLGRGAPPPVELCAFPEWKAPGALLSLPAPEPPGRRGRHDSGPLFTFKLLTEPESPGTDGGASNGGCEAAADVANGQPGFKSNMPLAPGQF

[11] = target: 5-hydroxytryptamine receptor 2A (Homo sapiens) (UniProt P28223)
[12] = target: Beta-3 adrenergic receptor (Homo sapiens) (UniProt P13945)
[13] = target: 5-hydroxytryptamine receptor 5A (Homo sapiens) (UniProt P47898)

Measured: inhibition

Chain of 5-hydroxytryptamine receptor 5A (Homo sapiens) (P47898 whole entry): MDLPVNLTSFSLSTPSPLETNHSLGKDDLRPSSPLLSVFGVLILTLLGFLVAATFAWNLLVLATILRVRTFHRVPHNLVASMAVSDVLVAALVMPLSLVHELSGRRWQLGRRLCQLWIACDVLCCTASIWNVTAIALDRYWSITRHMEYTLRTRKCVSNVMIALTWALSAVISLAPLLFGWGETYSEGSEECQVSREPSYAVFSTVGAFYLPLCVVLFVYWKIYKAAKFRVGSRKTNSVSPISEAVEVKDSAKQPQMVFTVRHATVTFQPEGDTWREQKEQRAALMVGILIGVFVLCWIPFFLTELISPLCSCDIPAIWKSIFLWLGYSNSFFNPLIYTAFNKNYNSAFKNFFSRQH
Chain of 5-hydroxytryptamine receptor 2A (Homo sapiens) (P28223 whole entry): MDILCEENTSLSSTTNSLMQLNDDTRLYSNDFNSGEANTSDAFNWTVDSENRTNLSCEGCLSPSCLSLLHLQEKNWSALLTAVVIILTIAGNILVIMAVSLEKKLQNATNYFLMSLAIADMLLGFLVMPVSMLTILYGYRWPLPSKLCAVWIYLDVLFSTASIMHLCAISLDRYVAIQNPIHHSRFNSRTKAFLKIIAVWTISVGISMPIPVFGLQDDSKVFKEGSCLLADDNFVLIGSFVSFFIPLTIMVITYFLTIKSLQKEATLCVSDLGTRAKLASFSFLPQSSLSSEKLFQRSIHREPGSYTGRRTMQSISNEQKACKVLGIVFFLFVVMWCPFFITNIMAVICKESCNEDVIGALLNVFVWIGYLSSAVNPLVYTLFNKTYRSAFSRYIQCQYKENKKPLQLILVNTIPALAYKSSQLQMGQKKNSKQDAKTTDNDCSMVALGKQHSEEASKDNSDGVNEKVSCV
Chain of Sigma non-opioid intracellular receptor 1 (Homo sapiens) (Q99720 whole entry): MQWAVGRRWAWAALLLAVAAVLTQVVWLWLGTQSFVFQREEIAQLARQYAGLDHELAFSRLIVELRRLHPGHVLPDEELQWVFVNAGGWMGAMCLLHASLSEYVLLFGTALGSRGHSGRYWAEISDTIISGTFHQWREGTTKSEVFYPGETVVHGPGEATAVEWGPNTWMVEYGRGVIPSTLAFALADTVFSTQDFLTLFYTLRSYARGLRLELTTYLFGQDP
Chain of D(4) dopamine receptor (Homo sapiens) (P21917 whole entry): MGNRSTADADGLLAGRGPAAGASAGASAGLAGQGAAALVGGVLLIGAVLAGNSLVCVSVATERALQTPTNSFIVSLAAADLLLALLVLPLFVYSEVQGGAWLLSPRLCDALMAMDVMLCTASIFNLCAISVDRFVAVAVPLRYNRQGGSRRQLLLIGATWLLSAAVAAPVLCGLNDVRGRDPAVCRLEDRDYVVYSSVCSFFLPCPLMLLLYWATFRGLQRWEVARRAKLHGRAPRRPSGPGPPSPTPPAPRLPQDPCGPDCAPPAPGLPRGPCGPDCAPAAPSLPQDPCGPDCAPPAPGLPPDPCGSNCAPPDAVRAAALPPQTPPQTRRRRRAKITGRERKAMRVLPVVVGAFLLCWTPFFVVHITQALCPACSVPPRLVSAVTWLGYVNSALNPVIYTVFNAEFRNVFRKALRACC
Chain of Kappa-type opioid receptor (Homo sapiens) (P41145 whole entry): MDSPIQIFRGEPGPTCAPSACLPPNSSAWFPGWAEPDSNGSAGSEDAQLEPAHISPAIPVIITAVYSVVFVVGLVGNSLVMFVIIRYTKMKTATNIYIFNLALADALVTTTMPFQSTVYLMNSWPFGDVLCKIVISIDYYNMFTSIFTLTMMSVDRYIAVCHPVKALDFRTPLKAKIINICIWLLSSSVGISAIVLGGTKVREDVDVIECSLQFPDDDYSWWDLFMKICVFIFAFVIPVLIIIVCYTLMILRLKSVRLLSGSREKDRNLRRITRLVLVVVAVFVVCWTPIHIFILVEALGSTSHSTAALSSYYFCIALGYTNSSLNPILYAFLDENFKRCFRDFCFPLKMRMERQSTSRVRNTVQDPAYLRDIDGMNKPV
Chain of 5-hydroxytryptamine receptor 2B (Homo sapiens) (P41595 whole entry): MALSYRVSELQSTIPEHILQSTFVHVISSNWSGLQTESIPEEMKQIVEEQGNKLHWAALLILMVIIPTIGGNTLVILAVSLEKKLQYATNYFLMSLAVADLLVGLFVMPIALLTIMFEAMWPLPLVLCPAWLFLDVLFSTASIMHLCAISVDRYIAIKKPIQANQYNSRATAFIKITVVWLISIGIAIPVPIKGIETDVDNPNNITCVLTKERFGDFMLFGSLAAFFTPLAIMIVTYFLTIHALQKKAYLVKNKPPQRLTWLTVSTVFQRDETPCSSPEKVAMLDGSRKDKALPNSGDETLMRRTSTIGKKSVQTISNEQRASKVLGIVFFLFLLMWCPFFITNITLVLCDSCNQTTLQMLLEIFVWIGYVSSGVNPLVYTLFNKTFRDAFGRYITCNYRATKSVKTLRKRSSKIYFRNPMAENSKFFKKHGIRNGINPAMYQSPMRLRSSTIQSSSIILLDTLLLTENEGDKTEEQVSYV
Chain of 5-hydroxytryptamine receptor 1B (Homo sapiens) (P28222 whole entry): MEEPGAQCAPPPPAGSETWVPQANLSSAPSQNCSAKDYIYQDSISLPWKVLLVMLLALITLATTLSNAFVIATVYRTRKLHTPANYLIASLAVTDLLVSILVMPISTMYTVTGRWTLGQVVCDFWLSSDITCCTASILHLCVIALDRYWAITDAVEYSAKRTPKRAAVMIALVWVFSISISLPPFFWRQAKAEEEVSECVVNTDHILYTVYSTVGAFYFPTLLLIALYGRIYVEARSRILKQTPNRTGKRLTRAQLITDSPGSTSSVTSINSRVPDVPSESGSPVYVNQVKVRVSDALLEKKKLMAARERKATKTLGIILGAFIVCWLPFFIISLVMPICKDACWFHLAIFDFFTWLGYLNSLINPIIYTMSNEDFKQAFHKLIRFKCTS
Chain of Beta-3 adrenergic receptor (Homo sapiens) (P13945 whole entry, looked up): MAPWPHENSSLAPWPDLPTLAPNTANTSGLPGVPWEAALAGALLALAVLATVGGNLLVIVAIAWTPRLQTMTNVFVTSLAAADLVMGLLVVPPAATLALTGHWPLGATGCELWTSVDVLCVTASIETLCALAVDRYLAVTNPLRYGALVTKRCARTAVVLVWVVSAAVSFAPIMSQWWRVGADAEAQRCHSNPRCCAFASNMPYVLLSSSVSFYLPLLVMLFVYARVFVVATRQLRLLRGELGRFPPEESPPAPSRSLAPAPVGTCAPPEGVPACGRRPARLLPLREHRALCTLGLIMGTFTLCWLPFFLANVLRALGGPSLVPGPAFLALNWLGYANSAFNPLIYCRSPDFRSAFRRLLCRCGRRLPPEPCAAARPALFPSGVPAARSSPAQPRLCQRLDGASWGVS

CCCOc1ccc([C@H]2[C@H](C(=O)O)[C@@H](c3ccc4c(c3)OCO4)CN2CC(=O)Nc2c(CC)cccc2CC)cc1 [A-192621]
inactive: [1] 12.8% | [2] 27.3% | [3] -9.09% | [4] 4.29% | [5] 4.31% | [6] -5.44% | [7] 35.3% | [8] -3.59% | [9] 9.55% | [10] -2.22% | [11] 4.84% | [12] 13.3% | [13] -0.22%
